Assay results published in patent publication US20090081197A1 (Palatin Technologies, Inc., priority 2007, published 2009).
Like-named read-outs stand apart in the source and are kept apart here. Positions of bridges follow the written chain, without caps; N, C: chain ends. Non-standard residues stand in square brackets, D forms with d. Residues, ends and D or L forms follow the SMILES beside them. *: point of attachment. Acetyl(2-naphthyl) = O=C(Cc1ccc2ccccc2c1)*; dPhe(4-Cl) = N[C@H](Cc1ccc(Cl)cc1)C(=O)O; 1Nal = N[C@@H](Cc1cccc2ccccc12)C(=O)O; 2Nal = N[C@@H](Cc1ccc2ccccc2c1)C(=O)O; d2Nal = N[C@H](Cc1ccc2ccccc2c1)C(=O)O; Ac6c = NC1(C(=O)O)CCCCC1; Heptanoyl = CCCCCCC(=O)*; Nle = CCCC[C@H](N)C(=O)O; Bn = c1ccc(C*)cc1

Columns and labels:
MC4-R [1] = molecular target: T1, MC4-R (Homo sapiens, UniProt P32245); assay: cAMP agonist stimulation, high receptor density system (10 ng/mL doxycycline); details: for Efficacy/Intrinsic Activity: 10 ng/mL doxycycline, high receptor density hMC4-R system, NDP-α-MSH maximal cAMP = 1.0
MC4-R [2] = molecular target: T1, MC4-R; assay: cAMP functional activity assay in HEK-293 cells, normal system; type: cell-based; design: expressed in transfected cells; host or cells: HEK-293; details: for intrinsic activity at MC4-R in a normal system: NDP-α-MSH = 1.0
Description: General method for EC50 determination in functional activity assay. […] Data analysis and EC50 values were determined using nonlinear regression analysis with Prism Graph-Pad software.
Functional status. The agonist/antagonist status with respect to MC1-R, MC-3R, MC4-R and MC5-R of certain compounds of the invention was determined. Antagonistic activity was determined by measuring the inhibition of α-MSH-induced or NDP-α-MSH-induced cAMP levels following exposure to graded doses of compounds as in the preceding descriptions.
Assay for agonist. Evaluation of the molecules to elicit a functional response in HEK-293 cells expressing MC4-R was accomplished by measuring the accumulation of intracellular cAMP following treatment. Confluent HEK-293 cells expressing MC4-R receptors were detached by enzyme free cell suspension buffer. […] The cells were plated in a 96 well plates at a density of 0.5×10^5 cells per well and pre-incubated for 30 minutes. Test compounds (dissolved in dimethylsulfoxide (DMSO) at a concentration range of 0.05-5000 nM) were added in a total assay volume of 200 μL and cells were incubated for 1 hour at 37° C. The concentration of DMSO was always held at 1% in the assay mixture. NDP-α-MSH was used as the reference agonist. […] Data analysis and EC50 values were determined by using nonlinear regression analysis with Prism Graph-Pad software. […] Compounds with a response ratio of less than 0.1 (10%) were evaluated for antagonistic activity.

[3] = ICV food intake and body weight change; type: in vivo; details: rat, 1 nmol, 24 hours
Description: ICV food intake and body weight change. Change in food intake and body weight was evaluated for selected compounds. Rats with indwelling intracerebroventricular cannulas (ICV rats) were obtained from Hilltop Lab Animals, Inc. (Scottdale, Pa.). Animals were individually housed in conventional plexiglass hanging cages and maintained on a controlled 12 hour on/off light cycle. Water and powdered (LabDiet, 5P00 Prolab RMH 3000) or pelleted (Harlan Teklad 2018 18% Protein Rodent Diet) food was provided ad libitum. For 1 week before treatment, 24-hour food intake and body weight change was recorded to assess a baseline for the group during vehicle treatment. The rats were dosed ICV with vehicle or selected compounds (1-3 nmol). The changes in body weight and food intake for the 24 hour period after dosing were determined. The changes in body weight and food intake for the 48 hour and 72 hour periods after dosing were also measured to determine reversal of changes in body weight and food intake effects back to baseline levels.

MC4-R [4] = molecular target: T1, MC4-R; assay: cAMP agonist stimulation, low receptor density system (0.1 ng/mL doxycycline); details: for Efficacy/Intrinsic Activity: 0.1 ng/mL doxycycline, low receptor density hMC4-R system, NDP-α-MSH maximal cAMP = 1.0
[5] = Penile erection induction in male rats; type: in vivo; details: rat
Description: Penile erection induction. The ability of compounds to induce penile erection (PE) in male rats was evaluated with selected compounds. Male Sprague-Dawley rats weighing 200-250 g were kept on a 12 hour on/off light cycle with food and water ad libitum. All behavioral studies were performed between 10 A.M. and 5 P.M. Groups of 4-8 rats were treated with compounds at a variety of doses via intravenous (IV) or intracerebroventricular (ICV) routes. Immediately after treatment, rats were placed into individual polystyrene cages (27 cm long, 16 cm wide, and 25 cm high) for behavioral observation. […] Controls utilized carrier without the test compound. Mean PEs in control groups were 0.17 to 0.5 PEs/rat by IV administration in various experiments and between 1-2 PEs/rat by ICV administration in various experiments, and thus only PEs with statistically relevant increases over the mean PEs in control groups are reported as inducing PEs. A PE response in IV animals greater than the mean PEs in control groups but less than 1.0 PEs/rat, particularly with less than all animals responding, was treated as equivocal, and not necessarily distinguishable from vehicle control. In selected instances, compounds with equivocal results in the IV model were tested for penile response in an ICV model, and compounds without a statistically relevant increase over the mean PEs in ICV control groups were determined to not induce PEs.

MC5-R = MC5-R (Homo sapiens, UniProt P33032); assay: Competitive inhibition assay using [I^125]-NDP-α-MSH, hMC5-R membranes; type: binding; design: expressed in transfected cells; details: for inhibition at 1 µM: read-out: Inhibition at 1 μM (NDP-α-MSH) In Normal System, MC5-R
Description: (§1) The ligand concentration used was 0.4 nM for MC3-R and MC5-R, 0.2 nM for MC4-R and 0.1 nM for B16-F10 (MC1-R) membranes. In certain experiments, hMC1-R was also employed.
(§2) The assay mixture was incubated for 90 minutes at room temperature, then filtered and the membranes washed three times with ice cold buffer. The filter was dried and counted in a gamma counter for remaining radioactivity bound to the membranes. […] Each assay was conducted in triplicate and the actual mean values are described, with results less than 0% reported as 0%.

MC3-R = MC3-R (Homo sapiens, UniProt P41968); assay: Competitive inhibition assay using [I^125]-NDP-α-MSH, hMC3-R membranes; type: binding; design: expressed in transfected cells; details: read-out: Inhibition at 1 μM (NDP-α-MSH) In Normal System, MC3-R
Description: as §1, §2

MC1-R = molecular target: T2, MC1-R (Mus musculus, UniProt Q01727); assay: Competitive inhibition assay using [I^125]-NDP-α-MSH, B-16 mouse melanoma cell membranes; type: binding; details: read-out: Inhibition at 1 μM (NDP-α-MSH) In Normal System, MC1-R
T2 construct: B-16 mouse melanoma cells (containing MC1-R); endogenous in cells
Description: as §1, §2

MC4-R [6] = molecular target: T1, MC4-R; assay: Competitive inhibition assay using [I^125]-NDP-α-MSH, hMC4-R membranes; type: binding; design: host or cells: TREx-293 (HEK-293 stably expressing Tet repressor); details: for inhibition at 1 µM: read-out: Inhibition at 1 μM (NDP-α-MSH) In Normal System, MC4-R; for Ki: read-out: Ki (nM) (NDP-α-MSH) In Normal System, MC4-R
Description: as §1, §2

[7] = normal system, 1 μM concentration where stated

Chain of MC5-R (P33032 whole entry): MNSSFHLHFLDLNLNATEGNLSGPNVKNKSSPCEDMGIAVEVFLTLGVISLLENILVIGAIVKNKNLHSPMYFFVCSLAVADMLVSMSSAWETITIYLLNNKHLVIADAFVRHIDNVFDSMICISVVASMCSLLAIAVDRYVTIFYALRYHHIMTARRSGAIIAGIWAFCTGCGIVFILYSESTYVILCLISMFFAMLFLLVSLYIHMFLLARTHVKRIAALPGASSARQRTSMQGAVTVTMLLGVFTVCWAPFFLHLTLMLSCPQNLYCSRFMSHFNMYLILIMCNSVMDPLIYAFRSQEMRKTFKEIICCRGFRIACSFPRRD
T2 sequence (Q01727 whole entry): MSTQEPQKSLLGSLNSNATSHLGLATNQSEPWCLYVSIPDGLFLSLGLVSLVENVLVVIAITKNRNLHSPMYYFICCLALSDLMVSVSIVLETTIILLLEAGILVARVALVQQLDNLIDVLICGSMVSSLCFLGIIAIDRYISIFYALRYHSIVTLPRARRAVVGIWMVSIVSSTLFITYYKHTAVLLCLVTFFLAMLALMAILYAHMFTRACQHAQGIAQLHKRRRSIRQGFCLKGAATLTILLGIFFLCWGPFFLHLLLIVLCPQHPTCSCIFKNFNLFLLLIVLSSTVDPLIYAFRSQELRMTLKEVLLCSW
T1 sequence (P32245 whole entry): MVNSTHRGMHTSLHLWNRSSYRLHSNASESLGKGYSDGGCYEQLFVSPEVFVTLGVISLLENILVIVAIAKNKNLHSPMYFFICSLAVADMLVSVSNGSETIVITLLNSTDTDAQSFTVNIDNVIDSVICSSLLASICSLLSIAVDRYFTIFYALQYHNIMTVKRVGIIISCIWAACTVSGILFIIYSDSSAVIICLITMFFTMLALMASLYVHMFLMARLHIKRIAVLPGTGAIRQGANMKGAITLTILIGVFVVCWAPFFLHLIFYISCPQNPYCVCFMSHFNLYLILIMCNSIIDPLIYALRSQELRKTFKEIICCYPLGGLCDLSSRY
Chain of MC3-R (P41968 whole entry): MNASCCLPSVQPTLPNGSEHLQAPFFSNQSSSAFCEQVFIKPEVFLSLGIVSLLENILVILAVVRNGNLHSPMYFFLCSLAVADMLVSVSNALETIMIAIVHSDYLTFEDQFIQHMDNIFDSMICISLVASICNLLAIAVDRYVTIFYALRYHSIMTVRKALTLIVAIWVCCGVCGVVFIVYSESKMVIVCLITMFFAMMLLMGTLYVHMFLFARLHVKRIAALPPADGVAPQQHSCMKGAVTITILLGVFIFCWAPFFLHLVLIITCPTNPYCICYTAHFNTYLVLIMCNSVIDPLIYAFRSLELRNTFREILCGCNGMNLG

| SMILES | EC50 (MC4-R [1]) | inhibition at 1 µM (MC5-R; 1 μM test compound) | inhibition at 1 µM (MC3-R; 1 μM test compound) | inhibition at 1 µM (MC1-R; 1 μM test compound) | inhibition at 1 µM (MC4-R [6]; 1 μM test compound) | Ki (MC4-R [6]) | EC50 (MC4-R [4]) | further results |
| --- | --- | --- | --- | --- | --- | --- | --- | --- |
| C[C@H](NC(=O)[C@H](CCCNC(=N)N)NC(=O)[C@@H](Cc1ccc(Cl)cc1)NC(=O)[C@H](COCc1ccccc1)NC(=O)CCCCCCN)c1cccc2ccccc12 [Example 16, 7′-amino-heptanoyl-Ser(Bzl)-D-Phe(4-Cl)-Arg-S-(−)-1-(1-naphthyl)ethylamide] | 180 nM | – | – | – | – | – | – | – |
| CCCCCCC(=O)N[C@H](C(=O)N[C@H](Cc1ccc(Cl)cc1)C(=O)N[C@@H](CCCNC(=N)N)C(=O)N[C@@H](Cc1c[nH]c2ccccc12)C(N)=O)[C@@H](C)OCc1ccccc1 [Example 23, Heptanoyl-Thr(Bzl)-D-Phe(4-Cl)-Arg-Trp-NH2] (Heptanoyl-T(Bn)[dPhe(4-Cl)]RW-NH2) | 184 nM | – | – | – | – | – | – | intrinsic activity at MC4-R in a normal system (MC4-R [2]; normal receptor density system): 0.4; functional status at MC4-R in cAMP assay (MC4-R [2]; [7]): partial agonist (intrinsic activity between 0.1 (10%) and 0.7 (70%) is classified as a partial agonist); decrease in body weight [3]: 1%; decrease in food intake [3]: 18%; Efficacy/Intrinsic Activity (MC4-R [4]): None; Efficacy/Intrinsic Activity (MC4-R [1]): 0.75; Penile Erection IV ([5]; IV): No; penile erection response ([5]; IV, 1 μg/kg): no penile erection response |
| N=C(N)NCCC[C@H](NC(=O)[C@@H](Cc1ccc(Cl)cc1)NC(=O)C1(NC(=O)Cc2ccc3ccccc3c2)CCCCC1)C(=O)N[C@@H](Cc1c[nH]c2ccccc12)C(N)=O [Example 24, 2-naphthylacetyl-1-amino-1-cyclohexane-carbonyl-D-Phe(4-Cl)-Arg-Trp-NH2] ({Acetyl(2-naphthyl)}-[Ac6c][dPhe(4-Cl)]RW-NH2) | – | – | – | – | – | – | – | intrinsic activity at MC4-R in a normal system (MC4-R [2]; normal receptor density system): 0.2; functional status at MC4-R in cAMP assay (MC4-R [2]; [7]): partial agonist (intrinsic activity between 0.1 (10%) and 0.7 (70%) is classified as a partial agonist); decrease in body weight [3]: 1%; decrease in food intake [3]: 21%; Efficacy/Intrinsic Activity (MC4-R [4]): None; Efficacy/Intrinsic Activity (MC4-R [1]): None |
| CNC(=O)[C@@H]1CCCCNC(=O)C[C@H](NC(C)=O)C(=O)N[C@@H](Cc2c[nH]c3ccccc23)C(=O)N[C@H](Cc2ccc3ccccc3c2)C(=O)N[C@@H](CCCNC(=N)N)C(=O)N[C@@H](Cc2ccc3ccccc3c2)C(=O)N1 [Example 35, Ac-cyclo(Asp-Trp-D-Nal 2-Arg-Nal 2-Lys)-NH—CH3] (Ac-DW[d2Nal]R[2Nal]K-NHMe; lactam 1-6) | – | – | – | – | – | – | – | functional status at MC4-R in cAMP assay (MC4-R [2]; at 1 nM dose): inactive; inhibition at 1 µM (MC5-R): 98%; inhibition at 1 µM (MC3-R): 99%; inhibition at 1 µM (MC1-R): 67%; inhibition at 1 µM (MC4-R [6]): 100% |
| CCCC[C@H](NC(C)=O)C(=O)N[C@H]1CC(=O)NCCCC[C@@H](C(=O)N(C)C)NC(=O)[C@H](Cc2cccc3ccccc23)NC(=O)[C@H](CCCNC(=N)N)NC(=O)[C@@H](Cc2ccccc2)NC(=O)[C@H](Cc2c[nH]c3ccccc23)NC1=O [Example 36, Ac-Nle-cyclo(-Asp-Trp-D-Phe-Arg-Nal 1-Lys)-N(CH3)2] (Ac-[Nle]DW[dF]R[1Nal]K-NMe2; lactam 2-7) | 4 nM | 92% | 83% | 71% | 99% | 38 nM | – | – |
| CCCC[C@H](NC(C)=O)C(=O)N[C@H]1CC(=O)NCCCC[C@@H](C(=O)N(C)C)NC(=O)[C@H](Cc2cccc3ccccc23)NC(=O)[C@H](CCCNC(=N)N)NC(=O)[C@@H](Cc2ccccc2)NC(=O)[C@H](Cc2c[nH]cn2)NC1=O [Example 37, Ac-Nle-cyclo(-Asp-His-D-Phe-Arg-Nal 1-Lys)-N(CH3)2] | 0.6 nM | 92% | 92% | 82% | 100% | 5 nM | 2.1 nM | – |
| CCCC[C@H](NC(C)=O)C(=O)N[C@H]1CC(=O)NCCCC[C@@H](C(=O)NCC)NC(=O)[C@H](Cc2cccc3ccccc23)NC(=O)[C@H](CCCNC(=N)N)NC(=O)[C@@H](Cc2ccccc2)NC(=O)[C@H](Cc2c[nH]c3ccccc23)NC1=O [Example 38, Ac-Nle-cyclo(-Asp-Trp-D-Phe-Arg-Nal 1-Lys)-NH—CH2—CH3] (Ac-[Nle]DW[dF]R[1Nal]K-NHEt; lactam 2-7) | 10 nM | 92% | 92% | 98% | 100% | 9 nM | – | – |
| CCCC[C@H](NC(C)=O)C(=O)N[C@H]1CC(=O)NCCCC[C@@H](C(=O)NCC)NC(=O)[C@H](Cc2cccc3ccccc23)NC(=O)[C@H](CCCNC(=N)N)NC(=O)[C@@H](Cc2ccccc2)NC(=O)[C@H](Cc2c[nH]cn2)NC1=O [Example 39, Ac-Nle-cyclo(-Asp-His-D-Phe-Arg-Nal 1-Lys)-NH—CH2—CH3] | 1.1 nM | 93% | 93% | 100% | 98% | 2 nM | 10 nM | – |
| CCNC(=O)[C@@H]1CCCCNC(=O)C[C@H](NC(C)=O)C(=O)N[C@@H](Cc2c[nH]cn2)C(=O)N[C@H](Cc2ccccc2)C(=O)N[C@@H](CCCNC(=N)N)C(=O)N[C@@H](Cc2c[nH]c3ccccc23)C(=O)N1 [Example 40, Ac-cyclo(-Asp-His-D-Phe-Arg-Trp-Lys)-NH—CH2—CH3] | 0.5 nM | 16% | 65% | 96% | 96% | 6 nM | 3.1 nM | EC50 (MC4-R [2]; normal receptor density system): 3 nM; Ki (MC5-R; read-out: Ki (nM) (NDP-α-MSH) In Normal System, MC5-R): > 1000 nM |
| CCCC[C@H](NC(C)=O)C(=O)N[C@H]1CC(=O)NCCCC[C@@H](C(=O)O)NC(=O)[C@H](Cc2c[nH]c3ccccc23)NC(=O)[C@H](CCCNC(=N)N)NC(=O)[C@@H](Cc2ccccc2)NC(=O)[C@H](Cc2c[nH]cn2)NC1=O [PT-141, cyclo 2,7[Ac-Nle-Asp-His-D-Phe-Arg-Trp-Lys]-OH, reference compound] | – | – | – | – | – | – | – | Penile Erection ICV ([5]; ICV): Yes**; Penile Erection IV ([5]; IV): Yes** |
